pIC50: −log10 of the molar value. Values belong to the compound of their own block, whether it stands above or below them.
Experiments:
[1] = test system: mammalian tumor cell lines such as PC-3, LNCAP, U87, Huh-7, HepG2 and MDA-MB-468; assay: Cell proliferation/survival MTT assay in tumor cell lines; assay type: cell-based; conditions: 5 days (120 h) culture; cell line not specified; read-out: IC50, inhibition of tumor cell growth (MTT)
Procedure: The cytotoxic or cytostatic activity of Formula I-III exemplary compounds was measured by establishing proliferating mammalian tumor cell lines such as PC-3, LNCAP, U87, Huh-7, HepG2 and MDA-MB-468 in a cell culture medium, adding a test compound, culturing the cells for a period of 5 days by measuring cell viability via MTT assays. Dose response data were obtained for each test compound and the degree of inhibition of tumor cell growth was expressed as an IC50 value. […] For example. For example, compounds of example 14, 15, 46,29, 45, 49, 122, 88, 54, 55, 58, 59, 63, 64, 66, 67, 68, 113, 86, 90.
PC-3 (or U87) cells were seeded in 96-well plates at low density (at 2,000 cells per well) in media supplemented with 10% FBS (growth media) and transferred to serum-free media (1% FBS) after 24 h. Designated concentrations of drug were added to each well. The cells were incubated for 120 h. At the end of drug exposure, 20 μL/well of MTT solution was added. After 4 h at 37° C. in a humidified 5% CO2 atmosphere, the absorbance at 490 nm was recorded by using a microplate reader. IC50 was calculated using GraphPad Prism version 5 for Windows. The curves were fit using a nonlinear regression model with a log (inhibitor) versus response formula.

mTOR (FRAP1) = mTOR (FRAP1) (Homo sapiens, UniProt P42345); assay: SelectScreen Profiling, Z'-LYTE kinase assay, mTOR (FRAP1); assay type: biochemical; conditions: 0.1 μM compound, ATP at Km, read-out: mTOR inh% @0.1 μM
Description: (§1) Some of the example compounds were submitted to Life Technologies Corporation SelectScreen® Profiling Service to test their potency in inhibiting the kinase catalytic activities of mTOR, PI3Kα, VEGF2, FGFR1, HER1 (EGFR) and HER2. A concentration of ATP at the Km of the corresponding kinase was used for all assays. The mTOR (FRAP1), VEGF2, FGFR1, HER1 (EGFR) and HER2 assays used Z′-LYTE® technology. The PI3Kα assay used Adapta® technology. The symbol “inh %” as used herein generally refers to inhibition percentage.

PI3Kα = PI3Kα (Homo sapiens, UniProt P42336); assay: SelectScreen Profiling, Adapta kinase assay, PI3Kα; assay type: biochemical; conditions: 0.1 μM compound, ATP at Km, read-out: PI3Kα inh % @0.1 μM
Sequence of PI3Kα (P42336 whole entry): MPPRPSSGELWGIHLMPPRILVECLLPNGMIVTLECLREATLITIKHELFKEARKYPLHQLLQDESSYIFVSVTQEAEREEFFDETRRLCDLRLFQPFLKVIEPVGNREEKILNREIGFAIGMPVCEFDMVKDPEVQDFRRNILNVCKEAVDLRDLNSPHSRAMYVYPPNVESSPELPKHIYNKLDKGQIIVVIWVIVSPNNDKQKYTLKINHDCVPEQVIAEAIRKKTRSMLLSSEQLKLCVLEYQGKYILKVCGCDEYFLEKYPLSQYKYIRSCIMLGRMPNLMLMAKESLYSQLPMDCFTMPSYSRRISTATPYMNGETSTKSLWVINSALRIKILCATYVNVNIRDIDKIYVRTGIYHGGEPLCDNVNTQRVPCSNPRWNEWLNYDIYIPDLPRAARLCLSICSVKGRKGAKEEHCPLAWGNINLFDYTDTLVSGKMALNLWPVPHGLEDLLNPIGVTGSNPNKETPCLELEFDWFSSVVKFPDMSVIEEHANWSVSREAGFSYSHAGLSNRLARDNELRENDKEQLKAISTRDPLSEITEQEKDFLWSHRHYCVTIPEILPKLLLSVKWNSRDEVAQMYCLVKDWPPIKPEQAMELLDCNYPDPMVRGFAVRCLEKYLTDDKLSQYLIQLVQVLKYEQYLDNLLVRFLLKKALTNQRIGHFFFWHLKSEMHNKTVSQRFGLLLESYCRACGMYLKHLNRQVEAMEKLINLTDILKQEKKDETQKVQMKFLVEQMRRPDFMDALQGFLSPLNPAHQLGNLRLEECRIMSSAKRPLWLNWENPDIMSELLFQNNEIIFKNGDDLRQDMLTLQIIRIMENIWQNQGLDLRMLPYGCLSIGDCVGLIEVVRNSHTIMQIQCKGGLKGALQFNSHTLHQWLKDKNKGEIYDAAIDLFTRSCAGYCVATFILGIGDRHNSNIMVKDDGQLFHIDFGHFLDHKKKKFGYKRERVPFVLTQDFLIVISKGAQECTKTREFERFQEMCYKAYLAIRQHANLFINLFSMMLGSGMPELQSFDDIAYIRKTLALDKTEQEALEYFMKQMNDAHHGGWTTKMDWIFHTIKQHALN
Sequence of PI3Kα (P27986 whole entry partner): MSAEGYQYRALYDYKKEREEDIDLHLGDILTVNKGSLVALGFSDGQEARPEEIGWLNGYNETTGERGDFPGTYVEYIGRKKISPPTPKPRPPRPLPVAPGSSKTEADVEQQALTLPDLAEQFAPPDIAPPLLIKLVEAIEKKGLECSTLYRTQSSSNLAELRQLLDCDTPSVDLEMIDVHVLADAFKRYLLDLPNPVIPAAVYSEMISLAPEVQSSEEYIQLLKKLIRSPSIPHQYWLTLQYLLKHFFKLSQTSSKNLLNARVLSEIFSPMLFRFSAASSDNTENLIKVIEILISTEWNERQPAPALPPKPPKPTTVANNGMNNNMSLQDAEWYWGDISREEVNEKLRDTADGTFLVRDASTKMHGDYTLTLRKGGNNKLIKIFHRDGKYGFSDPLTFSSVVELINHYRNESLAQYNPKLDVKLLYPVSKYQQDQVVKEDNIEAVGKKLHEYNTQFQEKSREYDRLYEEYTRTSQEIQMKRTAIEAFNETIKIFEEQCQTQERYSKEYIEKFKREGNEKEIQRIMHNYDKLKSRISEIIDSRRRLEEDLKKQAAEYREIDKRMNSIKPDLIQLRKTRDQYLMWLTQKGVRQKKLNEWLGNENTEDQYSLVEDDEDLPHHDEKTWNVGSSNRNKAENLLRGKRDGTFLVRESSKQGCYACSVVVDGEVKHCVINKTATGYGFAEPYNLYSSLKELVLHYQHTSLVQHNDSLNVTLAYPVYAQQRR

HER1 (EGFR) = HER1 (EGFR) (Homo sapiens, UniProt P00533); assay: SelectScreen Profiling, Z'-LYTE kinase assay, HER1 (EGFR); assay type: biochemical; conditions: 1 μM compound, ATP at Km, read-out: HER1 inh % @1 μM
Sequence of HER1 (EGFR) (P00533 25-1210): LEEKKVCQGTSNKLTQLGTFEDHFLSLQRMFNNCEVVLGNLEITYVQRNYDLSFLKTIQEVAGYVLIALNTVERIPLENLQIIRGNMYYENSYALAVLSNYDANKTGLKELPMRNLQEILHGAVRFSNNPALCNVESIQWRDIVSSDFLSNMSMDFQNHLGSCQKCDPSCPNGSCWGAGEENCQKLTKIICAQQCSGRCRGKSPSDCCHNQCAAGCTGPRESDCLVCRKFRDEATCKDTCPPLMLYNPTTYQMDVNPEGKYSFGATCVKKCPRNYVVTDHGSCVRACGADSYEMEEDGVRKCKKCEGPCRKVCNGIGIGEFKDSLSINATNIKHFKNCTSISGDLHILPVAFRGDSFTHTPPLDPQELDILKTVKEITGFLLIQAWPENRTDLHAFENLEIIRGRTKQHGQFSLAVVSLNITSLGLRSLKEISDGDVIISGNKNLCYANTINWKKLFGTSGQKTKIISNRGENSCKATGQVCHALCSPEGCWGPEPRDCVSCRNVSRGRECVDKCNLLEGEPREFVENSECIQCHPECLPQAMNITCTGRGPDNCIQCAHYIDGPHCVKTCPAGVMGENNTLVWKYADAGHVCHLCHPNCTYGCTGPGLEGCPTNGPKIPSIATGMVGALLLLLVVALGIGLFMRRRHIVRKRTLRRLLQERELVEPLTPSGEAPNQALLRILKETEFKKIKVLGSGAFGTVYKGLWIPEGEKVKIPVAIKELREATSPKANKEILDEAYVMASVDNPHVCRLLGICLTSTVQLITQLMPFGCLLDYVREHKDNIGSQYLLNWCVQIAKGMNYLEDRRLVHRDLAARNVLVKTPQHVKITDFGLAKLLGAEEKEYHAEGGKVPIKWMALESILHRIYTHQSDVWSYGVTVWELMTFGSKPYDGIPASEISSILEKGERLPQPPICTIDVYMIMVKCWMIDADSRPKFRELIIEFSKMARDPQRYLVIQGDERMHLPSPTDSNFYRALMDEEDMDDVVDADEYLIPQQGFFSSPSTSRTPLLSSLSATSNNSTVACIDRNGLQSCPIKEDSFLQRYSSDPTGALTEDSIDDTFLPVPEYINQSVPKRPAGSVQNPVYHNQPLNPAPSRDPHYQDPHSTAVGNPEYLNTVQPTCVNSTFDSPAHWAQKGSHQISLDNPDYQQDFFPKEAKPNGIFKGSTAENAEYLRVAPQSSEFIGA
Description: as §1

FGFR1 = FGFR1 (Homo sapiens, UniProt P11362); assay: SelectScreen Profiling, Z'-LYTE kinase assay, FGFR1; assay type: biochemical; conditions: 1 μM compound, ATP at Km, read-out: FGFR 1 inh % @1 μM
Sequence of FGFR1 (P11362 22-822): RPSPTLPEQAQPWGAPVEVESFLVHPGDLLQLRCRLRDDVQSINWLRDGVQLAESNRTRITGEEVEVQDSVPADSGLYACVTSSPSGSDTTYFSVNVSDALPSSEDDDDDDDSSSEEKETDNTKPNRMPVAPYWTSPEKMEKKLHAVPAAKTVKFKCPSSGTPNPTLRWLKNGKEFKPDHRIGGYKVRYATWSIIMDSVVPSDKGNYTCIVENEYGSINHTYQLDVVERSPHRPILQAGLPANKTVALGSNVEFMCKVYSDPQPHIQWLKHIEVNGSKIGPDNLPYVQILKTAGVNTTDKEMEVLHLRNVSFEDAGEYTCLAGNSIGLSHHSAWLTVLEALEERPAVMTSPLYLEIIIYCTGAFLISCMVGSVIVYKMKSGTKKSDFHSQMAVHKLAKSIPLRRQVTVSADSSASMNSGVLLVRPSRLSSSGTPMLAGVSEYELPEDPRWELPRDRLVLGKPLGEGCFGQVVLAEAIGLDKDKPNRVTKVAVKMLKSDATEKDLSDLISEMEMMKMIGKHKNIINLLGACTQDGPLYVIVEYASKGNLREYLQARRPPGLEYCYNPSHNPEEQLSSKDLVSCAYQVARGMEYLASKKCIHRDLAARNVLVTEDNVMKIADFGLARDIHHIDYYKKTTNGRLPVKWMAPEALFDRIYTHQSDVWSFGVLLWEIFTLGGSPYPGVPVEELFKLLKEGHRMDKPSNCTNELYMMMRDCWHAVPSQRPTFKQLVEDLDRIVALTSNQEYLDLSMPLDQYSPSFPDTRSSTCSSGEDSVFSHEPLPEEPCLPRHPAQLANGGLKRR
Description: as §1

HER2 = HER2 (Homo sapiens, UniProt P04626); assay: SelectScreen Profiling, Z'-LYTE kinase assay, HER2; assay type: biochemical; conditions: 1 μM compound, ATP at Km, read-out: HER2 inh % @1 μM
Sequence of HER2 (P04626 23-1255): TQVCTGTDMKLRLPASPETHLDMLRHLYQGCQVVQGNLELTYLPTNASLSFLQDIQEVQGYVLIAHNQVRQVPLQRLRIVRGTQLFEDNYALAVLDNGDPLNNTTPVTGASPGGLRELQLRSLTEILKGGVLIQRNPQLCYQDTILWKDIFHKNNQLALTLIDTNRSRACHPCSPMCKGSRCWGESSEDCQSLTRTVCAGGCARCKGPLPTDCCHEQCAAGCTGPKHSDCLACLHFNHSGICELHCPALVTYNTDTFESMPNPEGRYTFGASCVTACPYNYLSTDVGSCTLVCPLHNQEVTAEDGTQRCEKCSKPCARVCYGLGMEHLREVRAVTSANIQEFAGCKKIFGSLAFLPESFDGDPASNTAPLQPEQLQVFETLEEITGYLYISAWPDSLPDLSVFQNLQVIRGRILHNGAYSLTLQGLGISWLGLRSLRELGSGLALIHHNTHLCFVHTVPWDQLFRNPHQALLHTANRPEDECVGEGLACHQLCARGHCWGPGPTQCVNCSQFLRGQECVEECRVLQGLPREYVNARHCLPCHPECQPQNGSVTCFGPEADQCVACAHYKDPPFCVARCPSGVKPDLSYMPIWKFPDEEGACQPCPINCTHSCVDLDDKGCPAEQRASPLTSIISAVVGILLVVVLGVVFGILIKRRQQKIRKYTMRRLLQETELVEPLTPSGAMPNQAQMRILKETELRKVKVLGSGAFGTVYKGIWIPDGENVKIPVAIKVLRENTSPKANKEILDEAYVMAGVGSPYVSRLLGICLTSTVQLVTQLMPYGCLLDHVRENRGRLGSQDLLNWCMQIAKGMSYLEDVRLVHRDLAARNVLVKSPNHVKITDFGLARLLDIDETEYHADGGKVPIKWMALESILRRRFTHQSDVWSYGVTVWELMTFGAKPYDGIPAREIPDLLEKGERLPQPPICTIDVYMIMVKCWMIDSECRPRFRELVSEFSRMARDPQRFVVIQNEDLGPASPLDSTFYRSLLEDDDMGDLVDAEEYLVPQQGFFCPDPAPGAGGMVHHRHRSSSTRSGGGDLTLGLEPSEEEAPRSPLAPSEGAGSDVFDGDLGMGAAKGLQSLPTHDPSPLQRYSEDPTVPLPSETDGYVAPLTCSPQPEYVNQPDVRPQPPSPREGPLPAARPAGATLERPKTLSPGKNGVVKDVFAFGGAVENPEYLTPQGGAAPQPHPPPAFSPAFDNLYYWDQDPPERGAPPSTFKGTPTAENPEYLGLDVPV
Description: as §1

VEGF2 = VEGF2 (Homo sapiens, UniProt P35968); assay: SelectScreen Profiling, Z'-LYTE kinase assay, VEGF2; assay type: biochemical; conditions: 1 μM compound, ATP at Km, read-out: VEGF 2 inh % @1 μM
Description: as §1

[2] = Rat pharmacokinetic study (IV and PO); assay type: in vivo; conditions: for bioavailability: PO 10 mg/kg vs IV 5 mg/kg, read-out: Fpo (oral bioavailability)
Procedure: (§2) Active mTOR inhibitors in enzymatic and/or cell-based assays herein were evaluated for pharmacokinetic properties. Preferable compounds are with pharmacokinetic properties of low clearance, long half-life and/or good oral bioavailability (Fpo). In vitro, selected example compounds were evaluated for metabolic stability by incubating with human liver microsome (HLM) for 60 min. Compounds that were metabolized slower (i.e. higher % remaining) are preferred. […] The more metabolic stable example compounds in the HLM assay were further evaluated for pharmacokinetic properties in vivo. In a representative experiment, selected example compounds were dosed to rats intravenously (IV, 5 mg/kg, 30% PEG400+30% PG+1% DMSO in saline) and orally (PO, 10 mg/kg, 2.4% DMSO+0.1% Tween80 in 0.5% CMC-Na), rat blood samples were taken at designed time points after dosing and analyzed for tested drug concentrations using LC-MS/MS. Pharmacokinetic parameters were derived from the time curve of drug concentrations.

[3] = Metabolic stability in human liver microsome (HLM); assay type: in vitro ADME; conditions: incubation with human liver microsome for 60 min
Procedure: as §2

- inhibition at 0.1 µM (mTOR (FRAP1)): 88%
SMILES: CN1CCN(CCNC(=O)c2ccc(NC(=O)Nc3ccc(-c4nc(N5CCOCC5)c5cccn5n4)cc3)cc2)CC1 [Example 49]
- pIC50 [1]: > 6.30

- inhibition at 1 µM (HER1 (EGFR)): -1%
- inhibition at 0.1 µM (mTOR (FRAP1)): 95%
- inhibition at 1 µM (FGFR1): -4%
- inhibition at 1 µM (HER2): 4%
- inhibition at 1 µM (VEGF2): 7%
SMILES: O=C(Nc1ccc(C(=O)N2CC(O)C2)cc1)Nc1ccc(-c2nc(N3CCOCC3)c3cccn3n2)cc1 [Example 54]
- pIC50 [1]: > 6.30

- inhibition at 0.1 µM (mTOR (FRAP1)): 69%
- inhibition at 0.1 µM (PI3Kα): -8%
SMILES: O=C(Nc1ccc(-c2nc(N3CCOCC3)c3cccn3n2)cc1)NC1CC1 [Example 38]

- inhibition at 0.1 µM (mTOR (FRAP1)): 63%
- inhibition at 0.1 µM (PI3Kα): 19%
SMILES: CN1CCN(C(=O)c2ccc(NC(=O)Nc3ccc(-c4nc(N5CCOCC5)c5ccc(C(F)(F)F)n5n4)cc3)cc2)CC1 [Example 65]

- inhibition at 0.1 µM (mTOR (FRAP1)): 71%
SMILES: CC(C)(O)c1ccc2c(N3CCOCC3)nc(-c3ccc(NC(=O)Nc4cccnc4)cc3)nn12 [Example 63]
- pIC50 [1]: > 6.30

- inhibition at 0.1 µM (PI3Kα): 25%
SMILES: C[C@@H]1COCCN1c1nc(-c2ccc(NC(=O)Nc3cccnc3)cc2)nn2cccc12 [Example 17]

- CL ([2]; PO 10 mg/kg): 25.05 mL/min/kg
- AUC(0-t) ([2]; blood, PO 10 mg/kg): 7290 ng·h/mL
- Cmax ([2]; blood, PO 10 mg/kg): 1520 ng/mL
- MRT ([2]; blood, PO 10 mg/kg): 3.45 h
- Tmax ([2]; blood, PO 10 mg/kg): 1.67 h
- half-life ([2]; blood, PO 10 mg/kg): 1.9 h
- bioavailability ([2]; blood): 22%
SMILES: CC(C)(C)C(=O)OCCNC(=O)Nc1ccc(-c2nc(N3CCOCC3)c3cccn3n2)cc1 [Example 128]

- metabolic stability in HLM [3]: metabolically stable
- inhibition at 0.1 µM (mTOR (FRAP1)): 87%
SMILES: O=C(Nc1ccc(C(=O)N2CC[C@@H](O)C2)cc1)Nc1ccc(-c2nc(N3CCOCC3)c3cccn3n2)cc1 [Example 67]
- pIC50 [1]: > 6.30

Further lines, the compound ahead of its results:

SMILES: O=C(Nc1ccc(C(=O)N2CC[C@H](O)C2)cc1)Nc1ccc(-c2nc(N3CCOCC3)c3cccn3n2)cc1 [Example 68]
- pIC50 [1]: > 6.30
- inhibition at 0.1 µM (mTOR (FRAP1)): 86%

SMILES: CCNC(=O)Nc1ccc(-c2nc(N3CCOC[C@H]3C)c3cccn3n2)cc1 [Example 4]
- inhibition at 0.1 µM (mTOR (FRAP1)): 72%
- inhibition at 0.1 µM (PI3Kα): 10%

SMILES: CN(C)C1CN(C(=O)c2ccc(NC(=O)Nc3ccc(-c4nc(N5CCOCC5)c5cccn5n4)cc3)cc2)C1 [Example 86]
- pIC50 [1]: > 6.30
- inhibition at 0.1 µM (mTOR (FRAP1)): 82%

SMILES: O=C(Nc1ccncc1)Nc1ccc(-c2nc(N3CCOCC3)c3cccn3n2)cc1 [Example 18]
- inhibition at 0.1 µM (PI3Kα): -13%

SMILES: C[C@@H](CO)NC(=O)Nc1ccc(-c2nc(N3CCOCC3)c3cccn3n2)cc1 [Example 52]
- inhibition at 0.1 µM (mTOR (FRAP1)): 74%
- inhibition at 0.1 µM (PI3Kα): 6%

SMILES: CC(C)(C)C(=O)OCCNC(=O)Nc1ccc(-c2nc(N3C[C@H]4CC[C@@H](C3)O4)c3cccn3n2)cc1 [Example 133]
- inhibition at 1 µM (HER1 (EGFR)): 1%
- inhibition at 0.1 µM (mTOR (FRAP1)): 90%
- inhibition at 1 µM (FGFR1): 4%
- inhibition at 1 µM (HER2): 5%
- inhibition at 1 µM (VEGF2): 9%

SMILES: O=C(Nc1ccc(-c2nc(N3CCOCC3)c3cccn3n2)cc1)Nc1ccc(CO)nc1 [Example 96]
- metabolic stability in HLM [3]: metabolically stable

SMILES: O=C(NCCO)Nc1ccc(-c2nc(N3C[C@H]4CC[C@@H](C3)O4)c3cccn3n2)cc1 [Example 127]
- metabolic stability in HLM [3]: metabolically stable
- CL ([2]; PO 10 mg/kg): 112.9 mL/min/kg
- AUC(0-t) ([2]; blood, IV 5 mg/kg): 3420 ng·h/mL
- Cmax ([2]; blood, IV 5 mg/kg): 3380 ng/mL
- MRT ([2]; blood, IV 5 mg/kg): 1.3 h
- clearance ([2]; blood, IV 5 mg/kg): 24.4 mL/min/kg
- half-life ([2]; blood, IV 5 mg/kg): 1.47 h
- AUC(0-t) ([2]; blood, PO 10 mg/kg): 1400 ng·h/mL
- Cmax ([2]; blood, PO 10 mg/kg): 296 ng/mL
- MRT ([2]; blood, PO 10 mg/kg): 5.11 h
- Tmax ([2]; blood, PO 10 mg/kg): 0.417 h
- half-life ([2]; blood, PO 10 mg/kg): 3.29 h
- bioavailability ([2]; blood): 22%
